Measured values from article PMC12399242 (Acta Pharmaceutica Sinica. B, 2025).
Where two headings read alike, the source gives them in different places.

Experiments:
[1] = test system: HIV-1 K103N + Y181C (RES056); assay: Antiviral activity against HIV-1 double mutant K103N + Y181C (RES056) in MT-4 cells; type: cell-based
[2] = test system: HIV-1 Y181C; assay: Antiviral activity against HIV-1 mutant Y181C in MT-4 cells; type: cell-based
[3] = test system: HIV-1 K103N; assay: Antiviral activity against HIV-1 mutant K103N in MT-4 cells; type: cell-based
[4] = test system: HIV-1 F227L + V106A; assay: microbe, parasite or virus in culture; type: cell-based
[5] = target: WT HIV-1 RT (Human immunodeficiency virus type 1 group M subtype B, UniProt P03366); assay: Inhibition of WT HIV-1 RT polymerase activity
Method: The anti-HIV-1 activity of A1–A24 and B1–B22 at the cellular or enzyme level were evaluated following our previously reported method[15].

[6] = test system: HIV-1 Y188L; assay: Antiviral activity against HIV-1 mutant Y188L in MT-4 cells; type: cell-based
[7] = test system: HIV-1 L100I; assay: Antiviral activity against HIV-1 mutant L100I in MT-4 cells; type: cell-based
[8] = test system: HIV-1 E138K; assay: Antiviral activity against HIV-1 mutant E138K in MT-4 cells; type: cell-based
[9] = test system: HIV-1 (IIIB); assay: microbe, parasite or virus in culture; type: cell-based; conditions: for SI (IIIB): selectivity index, ratio CC50/EC50; for EC50: mean ± SD, n ≥ 3
Excerpt: (§1) Inspired by our previous research on heteroaromatic-biphenyl-DAPYs[15], the 4-cyanophenyl group on the biphenyl moiety was replaced with a privileged 4-pyridyl group for further evaluation.

[10] = in vitro; conditions: human, CC50
Excerpt: as §1

[11] = test system: HIV-1 (IIIB); conditions: earlier compounds of Fig. 1 / introduction, cited from earlier work
[12] = test system: MT-4 cells; assay: in vitro
Excerpt: as §1

[13] = Human immunodeficiency virus 1, MT4, read-out: EC50 K103N + Y181C
[14] = Human immunodeficiency virus 1, MT4, read-out: EC50 Y181C
[15] = Human immunodeficiency virus 1, MT4, read-out: EC50 K103N
[16] = Human immunodeficiency virus 1, MT4, read-out: EC50 F227L + V106A
[17] = Human immunodeficiency virus 1, MT4, read-out: EC50 Y188L
[18] = Human immunodeficiency virus 1, MT4, read-out: EC50 L100I
[19] = Human immunodeficiency virus 1, MT4, read-out: EC50 E138K
[20] = Human immunodeficiency virus 1, IIIB, MT4, WT HIV-1, protection of MT-4 cells against HIV-induced cytopathogenicity
[21] = WT HIV-1, protection of MT-4 cells against HIV-induced cytopathogenicity
[22] = RES056, MT-4 cells, mean ± SD, n ≥ 3, read-out: EC50 K103N + Y181C
[23] = uninfected MT-4 cells, mean ± SD, n ≥ 3
[24] = MT-4 cells, mean ± SD, n ≥ 3, read-out: EC50 Y181C
[25] = MT-4 cells, mean ± SD, n ≥ 3, read-out: EC50 K103N
[26] = MT-4 cells, mean ± SD, n ≥ 3, read-out: EC50 F227L + V106A
[27] = MT-4 cells, mean ± SD, n ≥ 3, read-out: EC50 Y188L
[28] = MT-4 cells, mean ± SD, n ≥ 3, read-out: EC50 L100I
[29] = MT-4 cells, mean ± SD, n ≥ 3, read-out: EC50 E138K

N#Cc1ccc(Nc2ncc(Cl)c(Nc3c(F)cc(-c4ccc(C#N)cc4)cc3F)n2)cc1 [B10, 4′-((5-Chloro-2-((4-cyanophenyl)amino)pyrimidin-4-yl)amino)-3′,5′-difluoro-[1,1′-biphenyl]-4-carbonitrile]
EC50 [1, 13]: 676 ± 349 nM | EC50 [2, 14]: 11 ± 1.5 nM | EC50 [3, 15]: 5 ± 2.4 nM | EC50 [4, 16]: 959 ± 327 nM | IC50 [5]: 31 ± 2.2 nM | EC50 [6, 17]: 187 ± 52 nM | EC50 [7, 18]: 17 ± 8.1 nM | EC50 [8, 19]: 5.7 ± 2.8 nM

Cc1cc(-c2ccncc2)cc(C)c1Nc1nc(Nc2ccc(C#N)cc2)ncc1F [A24, 4-((4-((2,6-Dimethyl-4-(pyridin-4-yl)phenyl)amino)-5-fluoropyrimidin-2-yl)amino)benzonitrile]
EC50 [1, 13]: 63 ± 12 nM | EC50 [2, 14]: 9.3 ± 5.6 nM | EC50 [3, 15]: 1.9 ± 0.5 nM | EC50 [4, 16]: 244 ± 146 nM | IC50 [5]: 39 ± 2.4 nM | EC50 [6, 17]: 90 ± 27 nM | EC50 [7, 18]: 4.1 ± 3.7 nM | EC50 [8, 19]: 8.3 ± 5.4 nM

N#Cc1ccc(Nc2ncc(F)c(Nc3c(F)cc(-c4ccc(C#N)cc4)cc3F)n2)cc1 [A11, 4′-((2-((4-Cyanophenyl)amino)-5-fluoropyrimidin-4-yl)amino)-3′,5′-difluoro-[1,1′-biphenyl]-4-carbonitrile]
EC50 [1, 13]: > 45200 nM | SI (IIIB) [9]: >40,000 | CC50 [10]: > 45000 nM | EC50 [2, 14]: 8.1 ± 2 nM | EC50 [3, 15]: 5 ± 1.1 nM | EC50 [4, 16]: > 45200 nM | IC50 [5]: 27 ± 2.3 nM | EC50 [6, 17]: > 45200 nM | EC50 [7, 18]: 10 ± 2.9 nM | EC50 [8, 19]: 2.5 ± 0.7 nM

Cc1cc(-c2ccc(C#N)cc2)cc(C)c1Nc1nc(Nc2ccc(C#N)cc2)ncc1Cl [B11, 4′-((5-Chloro-2-((4-cyanophenyl)amino)pyrimidin-4-yl)amino)-3′,5′-dimethyl-[1,1′-biphenyl]-4-carbonitrile]
EC50 [1, 13]: 102 ± 24 nM | EC50 [9, 20]: ≤ 5.3 nM | EC50 [9, 21]: 5.3 ± 1.8 nM | SI (IIIB) [9]: 47,357 | EC50 [2, 14]: 9.8 ± 3.3 nM | EC50 [3, 15]: 4.4 ± 1.1 nM | EC50 [4, 16]: 164 ± 71 nM | IC50 [5]: 53 nM | EC50 [6, 17]: 33 ± 6.7 nM | EC50 [7, 18]: 5.5 ± 1.8 nM | EC50 [8, 19]: 12 ± 6.9 nM

Cc1cc(-c2ccc(C#N)cc2)cc(C)c1Nc1ccnc(Nc2ccc(C#N)cc2)n1 [compound 3]
EC50 ([11]; WT HIV-1): 1 nM | SI [11]: 2,059

O=C1Nc2ccc(Cl)cc2[C@@](C#CC2CC2)(C(F)(F)F)O1 [EFV, reference compound]
EC50 [1, 22]: 314 ± 146 nM | EC50 [9, 21]: 3.8 ± 1 nM | SI (IIIB) [9]: >1618 | CC50 [12, 23]: > 6300 nM | EC50 [2, 24]: 6.3 ± 2.5 nM | EC50 [3, 25]: 60 ± 19 nM | EC50 [4, 26]: 181 ± 89 nM | EC50 [6, 27]: 244 ± 95 nM | EC50 [7, 28]: 24 ± 9.5 nM | EC50 [8, 29]: 5.4 ± 1.6 nM

N#Cc1ccc(Nc2ncc(F)c(Oc3ccc(-c4ccc(C#N)cc4)cc3F)n2)cc1 [A1, 4′-((2-((4-Cyanophenyl)amino)-5-fluoropyrimidin-4-yl)oxy)-3′-fluoro-[1,1′-biphenyl]-4-carbonitrile]
EC50 [1, 13]: > 47000 nM | EC50 [9, 20]: ≤ 5.3 nM | EC50 [9, 21]: 4.2 ± 1.4 nM | SI (IIIB) [9]: >10,870 | CC50 ([12]; human): > 47000 nM | CC50 [10]: > 45000 nM | EC50 [2, 14]: 306 ± 117 nM | EC50 [3, 15]: 52 ± 42 nM | EC50 [4, 16]: > 47000 nM | IC50 [5]: 54 ± 9.4 nM | EC50 [6, 17]: > 47000 nM | EC50 [7, 18]: 174 ± 49 nM | EC50 [8, 19]: 28 ± 12 nM

N#Cc1ccc(Nc2ncc(F)c(Nc3ccc(-c4ccc(C#N)cc4)cc3F)n2)cc1 [A7, 4′-((2-((4-Cyanophenyl)amino)-5-fluoropyrimidin-4-yl)amino)-3′-fluoro-[1,1′-biphenyl]-4-carbonitrile]
EC50 [1, 13]: > 47100 nM | SI (IIIB) [9]: >25,806 | CC50 ([12]; human): > 47000 nM | CC50 [10]: > 45000 nM | EC50 [2, 14]: 259 ± 165 nM | EC50 [3, 15]: 68 ± 38 nM | EC50 [4, 16]: > 47100 nM | IC50 [5]: 28 ± 4.7 nM | EC50 [6, 17]: > 47100 nM | EC50 [7, 18]: 5440 ± 2400 nM | EC50 [8, 19]: 35 ± 17 nM

Cc1ccnc2c1NC(=O)c1cccnc1N2C1CC1 [NVP, reference compound]
EC50 [1, 22]: > 15000 nM | EC50 [9, 21]: 188 ± 68 nM | CC50 [12, 23]: > 15000 nM | EC50 [2, 24]: 9010 ± 2630 nM | EC50 [3, 25]: 5860 ± 2780 nM | EC50 [4, 26]: > 15000 nM | EC50 [6, 27]: > 15000 nM | EC50 [7, 28]: 1800 ± 1430 nM | EC50 [8, 29]: 143 ± 38 nM

Cc1cc(-c2ccc(C#N)cc2)ccc1Nc1nc(Nc2ccc(C#N)cc2)ncc1F [A9, 4′-((2-((4-Cyanophenyl)amino)-5-fluoropyrimidin-4-yl)amino)-3′-methyl-[1,1′-biphenyl]-4-carbonitrile]
EC50 [1, 13]: 24900 nM | EC50 [2, 14]: 9.3 ± 0.7 nM | EC50 [3, 15]: 7.1 ± 1.9 nM | EC50 [4, 16]: 37700 nM | IC50 [5]: 36 ± 4.8 nM | EC50 [6, 17]: 1620 ± 382 nM | EC50 [7, 18]: 17 ± 6.7 nM | EC50 [8, 19]: 10 ± 1.9 nM

N#Cc1ccc(Nc2ncc(Cl)c(Oc3ccc(-c4ccc(C#N)cc4)cc3F)n2)cc1 [B1, 4′-((5-Chloro-2-((4-cyanophenyl)amino)pyrimidin-4-yl)oxy)-3′-fluoro-[1,1′-biphenyl]-4-carbonitrile]
EC50 [9, 20]: 8.4 ± 3.4 nM | SI (IIIB) [9]: 4572 | CC50 [10]: 39000 ± 12000 nM

N#Cc1ccc(Nc2ncc(Cl)c(Nc3ccc(-c4ccc(C#N)cc4)cc3F)n2)cc1 [B6, 4′-((5-Chloro-2-((4-cyanophenyl)amino)pyrimidin-4-yl)amino)-3′-fluoro-[1,1′-biphenyl]-4-carbonitrile]
EC50 [9, 20]: 12 ± 2.7 nM | SI (IIIB) [9]: >3911 | CC50 [10]: > 45000 nM

N#Cc1ccc(Nc2ncc(F)c(Nc3c(F)cc(-c4ccncc4)cc3F)n2)cc1 [A23, 4-((4-((2,6-Difluoro-4-(pyridin-4-yl)phenyl)amino)-5-fluoropyrimidin-2-yl)amino)benzonitrile]
EC50 [9, 20]: 7.6 ± 1.2 nM | CC50 [10]: 21000 ± 18000 nM

N#Cc1ccc(Nc2ncc(F)c(Oc3ccc(-c4ccncc4)cc3Cl)n2)cc1 [A14, 4-((4-(2-Chloro-4-(pyridin-4-yl)phenoxy)-5-fluoropyrimidin-2-yl)amino)benzonitrile]
EC50 [9, 20]: 12 ± 3.1 nM | SI (IIIB) [9]: >3846 | CC50 [10]: > 48000 nM

COc1cc(-c2ccncc2)ccc1Oc1nc(Nc2ccc(C#N)cc2)ncc1Cl [B15, 4-((5-Chloro-4-(2-methoxy-4-(pyridin-4-yl)phenoxy)pyrimidin-2-yl)amino)benzonitrile]
EC50 [9, 20]: 6.7 ± 2.3 nM | SI (IIIB) [9]: >6897 | CC50 [10]: > 47000 nM

COc1cc(-c2ccc(C#N)cc2)ccc1Oc1nc(Nc2ccc(C#N)cc2)ncc1Cl [B4, 4′-((5-Chloro-2-((4-cyanophenyl)amino)pyrimidin-4-yl)oxy)-3′-methoxy-[1,1′-biphenyl]-4-carbonitrile]
EC50 [9, 20]: 26 ± 13 nM | SI (IIIB) [9]: 412 | CC50 [10]: 11000 ± 3700 nM

Cc1cc(-c2ccncc2)ccc1Nc1nc(Nc2ccc(C#N)cc2)ncc1Cl [B19, 4-((5-Chloro-4-((2-methyl-4-(pyridin-4-yl)phenyl)amino)pyrimidin-2-yl)amino)benzonitrile]
EC50 [9, 20]: 44 ± 9.7 nM | SI (IIIB) [9]: >1122 | CC50 [10]: > 48000 nM
